Results reported in PubChem BioAssay (NCI).
Several values for one entry are separate records, joined by “and”; a condition that tells them apart may be missing. Equal values may be shown once.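 Test compounds were applied to cells in 96-well plates for 48 hours at 5 doses. Here, GI50 denotes the concentration required for 50% inhibition of growth. TGI: total growth inhibition.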

test system: MDA-MB-468 breast; experiment: NCI anticancer screen, dose series, 48 h

SMILES | GI50 | TGI
Cc1nc2ccc(Nc3nc(Cl)nc(N4CCOCC4)n3)cc2n1Cc1ccccc1 | 2210 nM | 7090 nM
CCC(C)[C@H]1O[C@]2(CC[C@@H]1C)C[C@@H]1C[C@@H](C/C=C(\C)[C@@H](OC3C[C@H](OC)C(O[C@H]4C[C@H](OC)[C@@H](O)[C@H](C)O4)[C@H](C)O3)[C@@H](C)/C=C/C=C3\CO[C@@H]4[C@H](O)C(C)=C[C@@H](C(=O)O1)[C@]34O)O2 (some centres undefined) | 1600 nM | 3400 nM
NS(=O)(=O)c1ccc(Nc2cc(-c3cccc(O)c3)[nH]n2)cc1 | 9580 nM | > 25000 nM
O=C(CCCCCCNC(=O)C(O)(O)C(F)(F)F)Nc1ccc(Cl)cc1 | 1380 nM | 22200 nM
CCN(Cc1ccc(C)cc1)c1ccc(CO)c(Cl)c1 | 16.9 nM | 44.5 nM
Cc1nc([P+](c2ccccc2)(c2ccccc2)c2ccccc2)c(Sc2sc(-c3ccccc3)nc2[P+](c2ccccc2)(c2ccccc2)c2ccccc2)o1 | 417 nM | 3280 nM
C#Cc1nc(/C=C/C(=O)c2nccn2C)cs1 | 470 nM | 1470 nM
CCOC(=O)c1ccc(NC(=O)Nc2nncs2)cc1 | 176 nM | 14800 nM
COc1cc(OC)c(S(N)(=O)=O)cc1C(=O)/C=C/c1ccccc1 | 1200 nM | 9280 nM
O=C(Nc1ccc2[nH]nc(-c3ccncc3)c2c1)[C@@H]1CCN(CC(=O)N2CCN(c3ccc(-c4ncccn4)cc3)CC2)C1 | > 100000 nM | > 100000 nM
Fc1cccc(COc2ccc(Nc3ncnc4sc(-c5cccs5)cc34)cc2Cl)c1 | 201 nM | 2310 nM
CCN1C(=S)N(c2ccccc2)C2NC(=S)N(/N=C/C=C/c3ccccc3OC)C21 (centres undefined) | 292 nM | 1060 nM
Nc1nccc(-c2c(-c3ccc(F)cc3)ncn2C2CCNCC2)n1 | 649 nM and 2520 nM | > 10800 nM and 11500 nM
O=c1c2c(=NCCN3CCCC3)cc3c(=O)n(CCCN4CCOCC4)c(=O)c4c(-c5ccc(CN6CCCC6)cc5)cc(c(O)n1CCCN1CCOCC1)c2c4-3 | 32.4 nM | 119 nM
COc1ccc(/C=C/C(=O)c2cc(OC)c(OC)c(OC)c2)cc1OCC(=O)Nc1nc2ccc(OC(F)(F)F)cc2s1 | 3520 nM | 21200 nM
COc1cc(C2Cc3ncccc3-c3[nH]c(=O)c4cccnc4c32)cc(OC)c1OC (centres undefined) | 340 nM | 
O=S(=O)(NCCCNc1nccc(-c2c(-c3ccc(O)cc3)nc3sccn23)n1)c1ccc(F)cc1 | 2000 nM | 9430 nM
N#Cc1c(-n2c(Br)c(Br)c3cc(Br)ccc32)[nH]c2c(Br)cc(Br)cc12 | 907 nM | 3340 nM
CS(=O)(=O)Nc1cncc(-c2ccc3ncnc(Nc4ccc(F)c(Cl)c4)c3c2)c1 | 181 nM | 936 nM
COc1ccc(C2=N[C@@H](Cc3ccccc3)C(=O)Nc3ccsc32)cc1 | 1760 nM | 4580 nM
COc1ccc(C2CC(c3cccc(Nc4ccnc5cc(Cl)ccc45)c3)=NN2C=O)cc1 (centres undefined) | 239 nM | 836 nM
CCSCC1CC(O)(c2ccccc2)CC(c2ccc(F)cc2)O1 (centres undefined) | 2040 nM | 6050 nM
CC(C)(C)c1ccc(S(=O)(=O)Oc2ccc3c4c(c(=O)oc3c2)CCCCC4)cc1 | 3410 nM | > 100000 nM
C=C1CC[C@@H]2[C@](C)(COC(C)=O)[C@H](OC(C)=O)CC[C@@]2(C)[C@@H]1CC(Nc1ccc(S(=O)(=O)NC(C)=O)cc1)C1=CCOC1=O (some centres undefined) | 1530 nM | 3130 nM
COC[C@@H](N=C1NC(=O)/C(=C/c2ccc3ncccc3c2)S1)c1ccccc1 | 4510 nM | 17600 nM
Cc1cccc(N(C)C(=O)[C@@H]2[C@H](O)CCN2c2nc(C)cc(C(F)(F)F)c2C#N)c1 | 17300 nM | 51300 nM
CC(=O)c1ccc2c(c1)c1cc(C(C)=O)ccc1n2CCNC(C)C | 330 nM | 1740 nM
O=Nc1ccc(O)c(=O)cc1 | 739 nM | 2440 nM
CCN(CC)c1ccc(/C=N/NC(=O)CSc2nc3ccccc3c(=O)n2CCc2ccc(S(N)(=O)=O)cc2)c(O)c1 | 2120 nM | > 100000 nM
OCCN1CCN(CCCN2c3ccccc3Sc3ccc(Cl)cc32)CC1 | 1270 nM | 2700 nM
